Common to all, as to format: cell-based
In assay [1] the test system is Streptococcus pneumoniae ATCC 49619. Briefly: In vitro antibacterial activity (MIC). To be noted: ATCC49619, erythromycin sensitive strain ATCC 49619. As for the experimental part: (§1) Compounds of this invention were tested for in vitro activity against three erythromycin sensitive strains of Streptococcus pneumoniae (ATCC 6301, ATCC 700671, and ATCC 49619), using methods known in the microbiological art.

The test system of assay [2] is Streptococcus pneumoniae ATCC 6301. Briefly: In vitro antibacterial activity (MIC). As to conditions: ATCC6301, erythromycin sensitive strain ATCC 6301. As for the experimental part: as §1
The subject of assay [3] is Streptococcus pneumoniae ATCC 70071. Briefly: In vitro antibacterial activity (MIC). To be noted: ATCC70071, erythromycin sensitive strain ATCC 70071. As for the experimental part:
as §1

In another assay the target is T1, motilin receptor (Homo sapiens, UniProt O43193).
T1 construct: expressed in transfected cells
T1 sequence (O43193 whole entry): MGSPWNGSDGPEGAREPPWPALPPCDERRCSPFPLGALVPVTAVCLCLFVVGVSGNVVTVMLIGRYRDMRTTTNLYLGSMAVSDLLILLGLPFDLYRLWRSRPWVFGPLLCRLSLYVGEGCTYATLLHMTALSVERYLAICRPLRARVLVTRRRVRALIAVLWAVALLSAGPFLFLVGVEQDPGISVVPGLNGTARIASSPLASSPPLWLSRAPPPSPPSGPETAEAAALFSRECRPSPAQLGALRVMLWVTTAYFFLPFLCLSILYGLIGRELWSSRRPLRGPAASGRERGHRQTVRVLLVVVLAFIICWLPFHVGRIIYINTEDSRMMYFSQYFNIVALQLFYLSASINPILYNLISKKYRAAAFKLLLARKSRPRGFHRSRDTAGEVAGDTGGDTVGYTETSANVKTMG
The assay is described as follows: Motilin agonist activity (activation of the motilin receptor). On the procedure:
Compounds of this invention were tested for motilin agonist activity, following the procedure of Carreras et al., Anal. Biochem., 300, 146-151 (2002), the disclosure of which is incorporated herein by reference.

≈ marks a conversion by molar mass, not a printed value.

Data on four compounds can be found in patent publication US7407941B2, “N-desmethyl-N-substituted-11-deoxyerythromycin compounds” (Pfizer, Inc., priority 2003, dated 2008).

For `CC[C@H]1OC(=O)[C@H](C)[C@@H](O[C@H]2C[C@@](C)(OC)[C@@H](O)[C@H](C)O2)[C@H](C)[C@@H](O[C@@H]2O[C@H](C)C[C@H](N(C)C)[C@H]2O)[C@](C)(O)C[C@@H](C)C(=O)[C@H](C)[C@@H](O)[C@]1(C)O` [Erythromycin A, reference compound], the MIC was 0.049 µg/mL (≈ 0.0668 µM) in assay [1], 0.025 µg/mL (≈ 0.0341 µM) in assay [2] and 0.049 µg/mL (≈ 0.0668 µM) in assay [3].

Take `CC[C@H]1OC(=O)[C@H](C)[C@@H](O[C@H]2C[C@@](C)(OC)[C@@H](O)[C@H](C)O2)[C@H](C)[C@@H](O[C@@H]2O[C@H](C)C[C@H](N(C)CC(C)C)[C@H]2O)C(C)(O)C[C@@H](C)C(=O)[C@H](C)C[C@H]1C` (stereo partly drawn) [IVb, N-desmethyl-N-isobutyl-11-deoxyerythromycin B]: a half-maximal response on motilin receptor (EC50) required 2100 nM. In addition, the MIC is 200 µg/mL (≈ 269 µM) in assay [1], 200 µg/mL (≈ 269 µM) in assay [2] and more than 200 µg/mL in assay [3].

As for `CC[C@H]1OC(=O)[C@H](C)[C@@H](O[C@H]2C[C@@](C)(OC)[C@@H](O)[C@H](C)O2)[C@H](C)[C@@H](O[C@@H]2O[C@H](C)C[C@H](N(C)C(C)C)[C@H]2O)C(C)(O)C[C@@H](C)C(=O)[C@H](C)C[C@H]1C` (stereo partly drawn) [IVa, N-desmethyl-N-isopropyl-11-deoxyerythromycin B], the response on motilin receptor was half-maximal at 700 nM (EC50). In addition, the results for the MIC in assay [1], in assay [2] and in assay [3] were 6.25 µg/mL (≈ 8.56 µM), 12.5 µg/mL (≈ 17.1 µM) and 200 µg/mL (≈ 274 µM), respectively.

For the compound `CC[C@H]1OC(=O)[C@H](C)[C@@H](O[C@H]2C[C@@](C)(OC)[C@@H](O)[C@H](C)O2)[C@H](C)[C@@H](O[C@@H]2O[C@H](C)C[C@H](N(C)C)[C@H]2O)C(C)(O)C[C@@H](C)C(=O)[C@H](C)C[C@H]1C` (stereo partly drawn) [11-Deoxyerythromycin B, reference compound], the EC50 at motilin receptor was found to be 1200 nM. The MIC worked out at 0.098 µg/mL (≈ 0.14 µM) in assay [1], 0.049 µg/mL (≈ 0.0698 µM) in assay [2] and 0.78 µg/mL (≈ 1.11 µM) in assay [3].
